From the supplement of paper PMC10307832

Legend:
Test in all cases: relative viability (nuclei count vs DMSO), 5 days (fraction); higher = more cells survive
SW 900 = tested on: SW 900
In short: (§1)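 Five library-drug doses in √10 steps were combined with a fixed anchor-drug dose, or a single drug was given alone, by pin tool to lung cancer cell lines in 1536-well plates the day after seeding. Nuclei were stained and counted after 5 days. Relative viability is the nuclei count in treated wells over that in vehicle wells, taken as the median of duplicate plates.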

NCI-H2085 = tested on: NCI-H2085
In short: as §1

NCI-H358 = tested on: NCI-H358
In short: as §1

NCI-H1944 = tested on: NCI-H1944
In short: as §1

LC-2-ad = tested on: LC-2-ad
In short: as §1

HOP-62 = tested on: HOP-62
In short: as §1

LU99A = tested on: LU99A
In short: as §1

UMC-11 = tested on: UMC-11
In short: as §1

NCI-H2009 = tested on: NCI-H2009
In short: as §1

NCI-H1666 = tested on: NCI-H1666
In short: as §1

NCI-H1793 = tested on: NCI-H1793
In short: as §1

A-427 = tested on: A-427
In short: as §1

LXF-289 = tested on: LXF-289
In short: as §1

NCI-H460 = tested on: NCI-H460
In short: as §1

EPLC-272H = tested on: EPLC-272H
In short: as §1

NCI-H2170 = tested on: NCI-H2170
In short: as §1

NCI-H1792 = tested on: NCI-H1792
In short: as §1

COR-L 105 = tested on: COR-L 105
In short: as §1

SK-LU-1 = tested on: SK-LU-1
In short: as §1

NCI-H1915 = tested on: NCI-H1915
In short: as §1

Structure (SMILES): COc1cc2nccc(Oc3ccc(NC(=O)Nc4cc(C)on4)c(Cl)c3)c2cc1OC [Tivozanib] + CCNC(=O)c1noc(-c2cc(C(C)C)c(O)cc2O)c1-c1ccc(CN2CCOCC2)cc1 [Luminespib] (partner 0.01 µM)
- relative viability (SW 900; first compound 0.005 µM): 0.174
- relative viability (SW 900; first compound 0.01581 µM): 0.186
- relative viability (SW 900; first compound 0.05 µM): 0.184
- relative viability (SW 900; first compound 0.1581 µM): 0.167
- relative viability (SW 900; first compound 0.5 µM): 0.172
- relative viability (NCI-H2085; first compound 0.005 µM): 0.431
- relative viability (NCI-H2085; first compound 0.01581 µM): 0.4
- relative viability (NCI-H2085; first compound 0.05 µM): 0.469
- relative viability (NCI-H2085; first compound 0.1581 µM): 0.431
- relative viability (NCI-H2085; first compound 0.5 µM): 0.522
- relative viability (NCI-H358; first compound 0.005 µM): 0.336
- relative viability (NCI-H358; first compound 0.01581 µM): 0.568
- relative viability (NCI-H358; first compound 0.05 µM): 0.478
- relative viability (NCI-H358; first compound 0.5 µM): 0.339
- relative viability (NCI-H1944; first compound 0.005 µM): 0.691
- relative viability (NCI-H1944; first compound 0.01581 µM): 0.83
- relative viability (NCI-H1944; first compound 0.05 µM): 0.732
- relative viability (NCI-H1944; first compound 0.1581 µM): 0.625
- relative viability (NCI-H1944; first compound 0.5 µM): 0.818
- relative viability (LC-2-ad; first compound 0.005 µM): 1.03
- relative viability (LC-2-ad; first compound 0.01581 µM): 1.19
- relative viability (LC-2-ad; first compound 0.05 µM): 0.993
- relative viability (LC-2-ad; first compound 0.1581 µM): 0.945
- relative viability (LC-2-ad; first compound 0.5 µM): 0.879
- relative viability (HOP-62; first compound 0.005 µM): 0.857
- relative viability (HOP-62; first compound 0.01581 µM): 0.961
- relative viability (HOP-62; first compound 0.05 µM): 0.894
- relative viability (HOP-62; first compound 0.1581 µM): 0.932
- relative viability (HOP-62; first compound 0.5 µM): 0.918
- relative viability (LU99A; first compound 0.005 µM): 0.206
- relative viability (LU99A; first compound 0.01581 µM): 0.246
- relative viability (LU99A; first compound 0.05 µM): 0.218
- relative viability (LU99A; first compound 0.1581 µM): 0.203
- relative viability (LU99A; first compound 0.5 µM): 0.274
- relative viability (UMC-11; first compound 0.005 µM): 1.03
- relative viability (UMC-11; first compound 0.01581 µM): 0.975
- relative viability (UMC-11; first compound 0.05 µM): 1.03
- relative viability (UMC-11; first compound 0.5 µM): 1.06
- relative viability (NCI-H2009; first compound 0.005 µM): 1.04
- relative viability (NCI-H2009; first compound 0.01581 µM): 1.01
- relative viability (NCI-H2009; first compound 0.05 µM): 0.973
- relative viability (NCI-H2009; first compound 0.1581 µM): 1.04
- relative viability (NCI-H2009; first compound 0.5 µM): 0.984
- relative viability (NCI-H1666; first compound 0.005 µM): 0.89
- relative viability (NCI-H1666; first compound 0.01581 µM): 0.998
- relative viability (NCI-H1666; first compound 0.05 µM): 0.993
- relative viability (NCI-H1666; first compound 0.1581 µM): 1.01
- relative viability (NCI-H1666; first compound 0.5 µM): 1
- relative viability (NCI-H1793; first compound 0.005 µM): 0.154
- relative viability (NCI-H1793; first compound 0.01581 µM): 0.422
- relative viability (NCI-H1793; first compound 0.05 µM): 0.2
- relative viability (NCI-H1793; first compound 0.1581 µM): 0.141
- relative viability (NCI-H1793; first compound 0.5 µM): 0.237
- relative viability (A-427; first compound 0.005 µM): 1.09
- relative viability (A-427; first compound 0.01581 µM): 0.902
- relative viability (A-427; first compound 0.05 µM): 1.02
- relative viability (A-427; first compound 0.1581 µM): 0.836
- relative viability (A-427; first compound 0.5 µM): 1.01
- relative viability (LXF-289; first compound 0.005 µM): 0.582
- relative viability (LXF-289; first compound 0.01581 µM): 0.611
- relative viability (LXF-289; first compound 0.05 µM): 0.641
- relative viability (LXF-289; first compound 0.1581 µM): 0.689
- relative viability (LXF-289; first compound 0.5 µM): 0.773
- relative viability (NCI-H460; first compound 0.005 µM): 0.0252
- relative viability (NCI-H460; first compound 0.01581 µM): 0.0365
- relative viability (NCI-H460; first compound 0.05 µM): 0.0375
- relative viability (NCI-H460; first compound 0.1581 µM): 0.0404
- relative viability (NCI-H460; first compound 0.5 µM): 0.0362
- relative viability (EPLC-272H; first compound 0.005 µM): 0.24
- relative viability (EPLC-272H; first compound 0.01581 µM): 0.383
- relative viability (EPLC-272H; first compound 0.05 µM): 0.34
- relative viability (EPLC-272H; first compound 0.1581 µM): 0.242
- relative viability (EPLC-272H; first compound 0.5 µM): 0.443
- relative viability (NCI-H2170; first compound 0.005 µM): 0.711
- relative viability (NCI-H2170; first compound 0.01581 µM): 0.606
- relative viability (NCI-H2170; first compound 0.05 µM): 0.661
- relative viability (NCI-H2170; first compound 0.1581 µM): 0.304
- relative viability (NCI-H2170; first compound 0.5 µM): 0.907
- relative viability (NCI-H1792; first compound 0.005 µM): 0.457
- relative viability (NCI-H1792; first compound 0.01581 µM): 0.344
- relative viability (NCI-H1792; first compound 0.05 µM): 0.598
- relative viability (NCI-H1792; first compound 0.1581 µM): 0.415
- relative viability (NCI-H1792; first compound 0.5 µM): 0.551
- relative viability (COR-L 105; first compound 0.005 µM): 0.669
- relative viability (COR-L 105; first compound 0.01581 µM): 0.657
- relative viability (COR-L 105; first compound 0.05 µM): 1.07
- relative viability (COR-L 105; first compound 0.1581 µM): 0.734
- relative viability (COR-L 105; first compound 0.5 µM): 0.751
- relative viability (SK-LU-1; first compound 0.005 µM): 0.197
- relative viability (SK-LU-1; first compound 0.01581 µM): 0.211
- relative viability (SK-LU-1; first compound 0.05 µM): 0.201
- relative viability (SK-LU-1; first compound 0.1581 µM): 0.184
- relative viability (SK-LU-1; first compound 0.5 µM): 0.207
- relative viability (NCI-H1915; first compound 0.005 µM): 0.719
- relative viability (NCI-H1915; first compound 0.01581 µM): 0.855
- relative viability (NCI-H1915; first compound 0.05 µM): 0.848
- relative viability (NCI-H1915; first compound 0.1581 µM): 0.799
- relative viability (NCI-H1915; first compound 0.5 µM): 0.8
